Here are results for 14 molecules from ChEMBL document CHEMBL1131452 (J Med Chem, 1998).

Bounds are passed on as bounds.

Assay [1] addresses 3',5'-cyclic-AMP phosphodiesterase 4A (Homo sapiens, UniProt P27815). The assay is described as follows: Evaluated in vitro for its inhibitory activity on unpurified recombinant Phosphodiesterase type 4A (PDE4A).
Assay [2] has as its target 3',5'-cyclic-AMP phosphodiesterase 4C (Homo sapiens, UniProt Q08493). The assay is described as follows: Evaluated in vitro for its inhibitory activity on unpurified recombinant Phosphodiesterase 4C.
In assay [3] the target is 3',5'-cyclic-AMP phosphodiesterase 4D (Homo sapiens, UniProt Q08499). Nature of the assay: In vitro inhibitory activity on unpurified recombinant Phosphodiesterase 4D.
Assay [4] has as its target 3',5'-cyclic-AMP phosphodiesterase 4B (Homo sapiens, UniProt Q07343). Nature of the assay: Inhibition of recombinant human Phosphodiesterase 4B.
The species named for assay [5] is Homo sapiens. Nature of the assay: Evaluated in vitro for its inhibitory activity on LPS-induced TNF-Alpha release in human whole blood. The class given is functional, organism-based.
For assay [6], the species on record is Homo sapiens. Nature of the assay: Evaluated in vitro for its inhibitory activity on LPS-induced TNF-Alpha release in human monocyte. The class given is functional.
The target in the next assay is Phosphodiesterase 4 (Homo sapiens, UniProt P27815+Q08499+Q07343+Q08493). The assay is described as follows: Evaluated in vitro for its inhibitory activity on human monocyte cytosol Phosphodiesterase type 4 (PDE4). It counts as protein assay.

3',5'-cyclic-AMP phosphodiesterase 4D, sequence (Q08499 whole entry): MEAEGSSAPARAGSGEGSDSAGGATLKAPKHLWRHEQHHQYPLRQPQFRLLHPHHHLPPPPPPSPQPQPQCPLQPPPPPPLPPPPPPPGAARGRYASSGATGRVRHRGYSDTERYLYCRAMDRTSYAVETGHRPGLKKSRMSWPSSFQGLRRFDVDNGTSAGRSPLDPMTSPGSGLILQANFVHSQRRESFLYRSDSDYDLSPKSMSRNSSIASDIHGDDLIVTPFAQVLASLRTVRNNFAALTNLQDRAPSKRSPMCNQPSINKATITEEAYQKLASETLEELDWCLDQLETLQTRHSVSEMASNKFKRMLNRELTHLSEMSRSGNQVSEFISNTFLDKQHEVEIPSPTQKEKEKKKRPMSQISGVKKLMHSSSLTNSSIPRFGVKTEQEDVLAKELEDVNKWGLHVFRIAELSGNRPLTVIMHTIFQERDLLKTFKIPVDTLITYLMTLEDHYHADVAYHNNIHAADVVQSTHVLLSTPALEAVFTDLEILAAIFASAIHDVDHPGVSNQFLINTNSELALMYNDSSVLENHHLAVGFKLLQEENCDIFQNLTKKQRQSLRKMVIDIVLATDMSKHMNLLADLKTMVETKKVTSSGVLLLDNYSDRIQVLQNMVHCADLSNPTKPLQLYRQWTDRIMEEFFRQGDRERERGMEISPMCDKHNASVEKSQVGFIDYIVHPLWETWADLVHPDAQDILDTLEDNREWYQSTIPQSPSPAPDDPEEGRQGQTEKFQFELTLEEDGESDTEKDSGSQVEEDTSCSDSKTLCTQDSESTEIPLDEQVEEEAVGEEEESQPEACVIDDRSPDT
3',5'-cyclic-AMP phosphodiesterase 4B, sequence (Q07343 whole entry): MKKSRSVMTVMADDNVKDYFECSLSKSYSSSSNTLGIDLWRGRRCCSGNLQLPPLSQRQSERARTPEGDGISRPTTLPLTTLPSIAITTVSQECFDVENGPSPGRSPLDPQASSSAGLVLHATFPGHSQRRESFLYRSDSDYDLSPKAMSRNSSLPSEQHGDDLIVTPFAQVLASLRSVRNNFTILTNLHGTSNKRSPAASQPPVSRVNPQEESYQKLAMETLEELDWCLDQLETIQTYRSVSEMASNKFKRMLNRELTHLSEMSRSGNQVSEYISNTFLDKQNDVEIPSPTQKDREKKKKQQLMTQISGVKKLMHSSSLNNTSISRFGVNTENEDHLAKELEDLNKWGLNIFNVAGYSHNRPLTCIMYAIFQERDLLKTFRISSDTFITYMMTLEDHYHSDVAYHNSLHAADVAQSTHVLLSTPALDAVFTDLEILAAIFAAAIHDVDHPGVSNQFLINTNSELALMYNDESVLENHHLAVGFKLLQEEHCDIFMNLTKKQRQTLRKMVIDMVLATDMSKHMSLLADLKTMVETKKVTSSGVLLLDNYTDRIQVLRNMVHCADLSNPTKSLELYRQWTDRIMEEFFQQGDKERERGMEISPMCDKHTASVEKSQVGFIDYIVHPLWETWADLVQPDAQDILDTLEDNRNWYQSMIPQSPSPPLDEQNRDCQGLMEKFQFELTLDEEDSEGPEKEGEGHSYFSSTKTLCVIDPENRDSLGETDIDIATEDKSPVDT
3',5'-cyclic-AMP phosphodiesterase 4C, sequence (Q08493 whole entry): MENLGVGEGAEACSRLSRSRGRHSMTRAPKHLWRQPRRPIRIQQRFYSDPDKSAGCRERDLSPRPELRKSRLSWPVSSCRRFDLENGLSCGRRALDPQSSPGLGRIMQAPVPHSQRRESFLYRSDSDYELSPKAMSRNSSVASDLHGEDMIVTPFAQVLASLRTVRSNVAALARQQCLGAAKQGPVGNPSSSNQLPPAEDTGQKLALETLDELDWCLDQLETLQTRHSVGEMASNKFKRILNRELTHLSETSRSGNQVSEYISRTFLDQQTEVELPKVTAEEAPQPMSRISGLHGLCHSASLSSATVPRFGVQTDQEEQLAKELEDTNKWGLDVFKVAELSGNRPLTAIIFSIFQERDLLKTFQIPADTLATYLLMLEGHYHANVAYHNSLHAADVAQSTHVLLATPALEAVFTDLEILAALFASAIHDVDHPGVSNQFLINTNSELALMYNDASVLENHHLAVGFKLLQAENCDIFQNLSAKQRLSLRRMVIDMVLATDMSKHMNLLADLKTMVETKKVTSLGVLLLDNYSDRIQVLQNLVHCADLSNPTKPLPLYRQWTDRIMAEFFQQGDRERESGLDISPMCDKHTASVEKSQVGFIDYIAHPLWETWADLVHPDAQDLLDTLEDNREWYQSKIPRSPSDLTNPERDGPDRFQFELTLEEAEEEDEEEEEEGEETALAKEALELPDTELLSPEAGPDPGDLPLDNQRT
3',5'-cyclic-AMP phosphodiesterase 4A, sequence (P27815 whole entry): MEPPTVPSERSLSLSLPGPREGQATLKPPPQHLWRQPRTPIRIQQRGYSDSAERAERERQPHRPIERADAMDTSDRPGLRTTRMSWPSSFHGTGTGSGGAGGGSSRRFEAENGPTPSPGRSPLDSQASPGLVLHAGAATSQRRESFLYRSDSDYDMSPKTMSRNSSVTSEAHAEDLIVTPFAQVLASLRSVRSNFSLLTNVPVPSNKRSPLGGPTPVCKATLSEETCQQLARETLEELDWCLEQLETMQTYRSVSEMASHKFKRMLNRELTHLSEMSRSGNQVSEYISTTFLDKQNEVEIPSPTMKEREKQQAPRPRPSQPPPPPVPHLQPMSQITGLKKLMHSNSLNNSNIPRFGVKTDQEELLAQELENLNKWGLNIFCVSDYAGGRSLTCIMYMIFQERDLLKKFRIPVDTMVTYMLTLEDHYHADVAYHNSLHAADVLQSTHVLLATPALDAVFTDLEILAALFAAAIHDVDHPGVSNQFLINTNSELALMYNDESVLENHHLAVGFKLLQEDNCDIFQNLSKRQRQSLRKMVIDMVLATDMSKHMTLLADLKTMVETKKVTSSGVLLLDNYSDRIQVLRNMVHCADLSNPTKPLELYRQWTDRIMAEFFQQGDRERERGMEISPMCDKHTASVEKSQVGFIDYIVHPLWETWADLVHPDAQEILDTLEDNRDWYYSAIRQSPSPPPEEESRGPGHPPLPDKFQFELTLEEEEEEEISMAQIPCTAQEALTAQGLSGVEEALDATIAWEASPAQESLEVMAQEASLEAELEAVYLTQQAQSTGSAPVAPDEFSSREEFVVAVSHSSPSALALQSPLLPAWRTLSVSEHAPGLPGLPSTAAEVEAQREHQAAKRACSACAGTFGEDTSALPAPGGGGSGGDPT

As a reminder, the IC50 is the concentration at which inhibition is half-maximal. Turning to `COc1ccc(C2=NOC(C(=O)NO)C2)cc1OC1CCCC1` (configuration not stated), the IC50 is 2.2 nM in assay [1]; 18 nM in assay [2]; 2.7 nM in assay [3]; 2.1 nM in assay [4]; 30 nM in the assay filed under Homo sapiens [5].
With `COc1ccc(C2=NOC(C(=O)O)C2)cc1OC1CCCC1` (configuration not stated), the figures for the IC50 in the assay listed under Homo sapiens [6] and at Phosphodiesterase 4 were 35100 nM and 2.54 µM, respectively.
For `COc1ccc(C(=O)NCC(=O)O)cc1OC1CCCC1` the same measures were over 50000 nM and 1.76 µM.
As for `COc1ccc(C(=O)Nc2c(Cl)cncc2Cl)cc1OC1CCCC1`, the half-maximal inhibitory concentration (IC50) was found to be 2 nM in the assay filed under Homo sapiens [6] and 80 nM in the assay filed under Homo sapiens [5].
On to `COc1ccc(-c2cc(C(=O)NO)on2)cc1OC1CCCC1`, for which the IC50 in the assay filed under Homo sapiens [6] stood at 848 nM; against Phosphodiesterase 4, 1.65 µM.
Regarding `COc1ccc(C2=NOC(C(=O)N(C)O)C2)cc1OC1CCCC1` (configuration not stated), the IC50 in the assay listed under Homo sapiens [6] turned out to be 10200 nM; against Phosphodiesterase 4, 3.96 µM.
For `COc1ccc(C(=O)NC(C)C(=O)NO)cc1OC1CCCC1` (configuration not stated), the IC50 came out at 50.7 nM in assay [1]; 126 nM in assay [2]; 20.2 nM in assay [3]; 22.2 nM in assay [4]; 50 nM in the assay filed under Homo sapiens [5].
Regarding `CCC1(C(=O)NO)CC(c2ccc(OC)c(OC3CCCC3)c2)=NO1` (configuration not stated), the IC50 in the assay filed under Homo sapiens [6] was found to be 230 nM; at Phosphodiesterase 4 it was 0.178 µM.
The like results for `COc1ccc(C2=NOC(CC(=O)NO)C2)cc1OC1CCCC1` (configuration not stated) were, in that order, 138 nM and 0.221 µM.
The like results for `CCCC1(C(=O)NO)CC(c2ccc(OC)c(OC3CCCC3)c2)=NO1` (configuration not stated) were, in that order, 1020 nM and 0.567 µM.
For the molecule `COc1ccc(C2=NOC(C)(C(=O)NO)C2)cc1OC1CCCC1` (configuration not stated), the IC50 in assay [1] worked out at 9.8 nM; in assay [2], 95.2 nM; in assay [3] it was 10 nM; in assay [4], 10.9 nM; in the assay filed under Homo sapiens [5] it was 74 nM.
On to `COc1ccc(C(=O)NCC(=O)NO)cc1OC1CCCC1`, for which the half-inhibitory concentration (IC50) in the assay listed under Homo sapiens [6] is 32 nM; on Phosphodiesterase 4 it was 0.249 µM; in assay [1], 27.2 nM; in assay [2], 15.3 nM; in assay [3], 15.6 nM; in assay [4], 17.9 nM. In the assay filed under Homo sapiens [5], this molecule came in with an IC50 of 66 nM.
For `COc1ccc(C2=NOC(C(N)=O)C2)cc1OC1CCCC1` (configuration not stated), the results for the IC50 in the assay listed under Homo sapiens [6] and against Phosphodiesterase 4 were 4240 nM and 3.93 µM, respectively.
On to `COc1ccc(C2CNC(=O)C2)cc1OC1CCCC1` (configuration not stated) [ROLIPRAM], for which the IC50 stood at 379 nM in the assay listed under Homo sapiens [6] and 660 nM in the assay listed under Homo sapiens [5].
